Here are results for 31 compounds from patent US12410160B2 (Gilead Sciences, Inc., priority 2021, dated 2025).

The target of one assay is human KHK-A (Homo sapiens (Human), UniProt P50053). Put plainly: KHK Biochemical Assay (IC50), ADP-Glo, KHK-A. To be noted: ADP-Glo; average of at least two separate assays. The method in brief: (§1)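 His-tagged enzyme expressed in BL21 (DE3), Ni-NTA purified. Compounds, serially diluted 1:3 in DMSO, pre-incubated 30 min with enzyme in 50 mM Hepes pH 7.4, 140 mM KCl, 5 mM MgCl2, 0.01% Triton-X, then ATP and fructose added; 4 h at room temperature. ADP formation read by ADP-Glo luminescence.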
On the technique in general: ADP-Glo turns the ADP formed in a reaction into a luminescent signal.

A further assay deals with human KHK-C (Homo sapiens (Human), UniProt P50053). Nature of the assay: KHK Biochemical Assay (IC50), ADP-Glo, KHK-C. To be noted: ADP-Glo; average of at least two separate assays. The method, boiled down: as §1
human KHK-C, sequence (P50053 whole entry): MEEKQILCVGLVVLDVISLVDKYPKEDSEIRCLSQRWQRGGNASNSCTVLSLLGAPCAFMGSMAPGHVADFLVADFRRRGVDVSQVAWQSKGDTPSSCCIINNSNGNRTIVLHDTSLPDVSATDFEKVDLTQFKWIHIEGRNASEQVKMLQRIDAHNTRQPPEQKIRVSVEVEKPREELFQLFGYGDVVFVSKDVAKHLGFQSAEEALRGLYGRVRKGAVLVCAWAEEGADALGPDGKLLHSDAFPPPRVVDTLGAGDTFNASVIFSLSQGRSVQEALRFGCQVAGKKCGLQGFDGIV

human KHK-A, sequence (P50053 other isoform, or with tags, fused parts or gaps): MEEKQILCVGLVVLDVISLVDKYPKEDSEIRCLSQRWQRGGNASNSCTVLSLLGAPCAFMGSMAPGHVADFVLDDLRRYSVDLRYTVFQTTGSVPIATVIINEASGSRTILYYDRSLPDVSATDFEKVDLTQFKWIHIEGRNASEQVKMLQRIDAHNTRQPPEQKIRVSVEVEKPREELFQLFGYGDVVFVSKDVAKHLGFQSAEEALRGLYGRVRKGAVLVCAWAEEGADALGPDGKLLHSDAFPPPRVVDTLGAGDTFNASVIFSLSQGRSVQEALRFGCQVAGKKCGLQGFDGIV

As for `CNS(=O)(=O)c1cccc(-c2nc(N3CC[C@@H]3C)nc3c2CCC3)c1` [Example 214, N-methyl-3-[2-[(2S)-2-methylazetidin-1-yl]-6,7-dihydro-5H-cyclopenta[d]pyrimidin-4-yl]benzenesulfonamide], the IC50 stood at 37.5 nM against human KHK-A and 37.7 nM against human KHK-C.

In the case of `C[C@H]1CCN1c1nc2c(c(-c3cccc(S(=O)(=O)N(C)C)c3)n1)CCC2` [Example 215, N,N-dimethyl-3-[2-[(2S)-2-methylazetidin-1-yl]-6,7-dihydro-5H-cyclopenta[d]pyrimidin-4-yl]benzenesulfonamide], the figures for the IC50 at human KHK-A and on human KHK-C were 78.9 nM and 106 nM, respectively.

For `C[C@H]1CCN1c1nc2c(c(-c3cccc(C(=O)NCc4ccccc4)c3)n1)CCC2` [Example 218, N-benzyl-3-[2-[(2S)-2-methylazetidin-1-yl]-6,7-dihydro-5H-cyclopenta[d]pyrimidin-4-yl]benzamide], the IC50 at human KHK-A turned out to be 418 nM; against human KHK-C, 485 nM.

For the compound `C[C@H]1CCN1c1nc2c(c(-c3ccc4c(c3)CCN(C)C4=O)n1)CCC2` [Example 222, (S)-2-methyl-6-(2-(2-methylazetidin-1-yl)-6,7-dihydro-5H-cyclopenta[d]pyrimidin-4-yl)-3,4-dihydroisoquinolin-1(2H)-one], the IC50 against human KHK-A was found to be 75.1 nM; against human KHK-C, 79.2 nM.

As to `C[C@H]1CCN1c1nc2c(c(-c3cccc(CNC(=O)C(C)(C)O)c3)n1)CCC2` [Example 228, 2-hydroxy-2-methyl-N-[[3-[2-[(2S)-2-methylazetidin-1-yl]-6,7-dihydro-5H-cyclopenta[d]pyrimidin-4-yl]phenyl]methyl]propanamide], the IC50 at human KHK-A came out at 159 nM; against human KHK-C it was 143 nM.

As for `C[C@@H](O)C(=O)NCc1cccc(-c2nc(N3CC[C@@H]3C)nc3c2CCC3)c1` [Example 229, (2R)-2-hydroxy-N-[[3-[2-[(2S)-2-methylazetidin-1-yl]-6,7-dihydro-5H-cyclopenta[d]pyrimidin-4-yl]phenyl]methyl]propanamide], the IC50 on human KHK-A was 108 nM; against human KHK-C it was 95.7 nM.

For `C[C@H](O)C(=O)NCc1cccc(-c2nc(N3CC[C@@H]3C)nc3c2CCC3)c1` [Example 230, (2S)-2-hydroxy-N-[[3-[2-[(2S)-2-methylazetidin-1-yl]-6,7-dihydro-5H-cyclopenta[d]pyrimidin-4-yl]phenyl]methyl]propanamide], the IC50 against human KHK-A came to 96.7 nM; against human KHK-C, 107 nM.

Regarding `C[C@H]1CCN1c1nc2c(c(-c3ccc(C4CNC4)cc3)n1)CCC2` [Example 233, 4-[4-(azetidin-3-yl)phenyl]-2-[(2S)-2-methylazetidin-1-yl]-6,7-dihydro-5H-cyclopenta[d]pyrimidine], the half-inhibitory concentration (IC50) on human KHK-A was determined as 55.7 nM; against human KHK-C, 9.7 nM.

Regarding `C[C@H]1CCN1c1nc2c(c(-c3ccc4c(c3)C(=O)NS4(=O)=O)n1)CCC2` [Example 239, (S)-5-(2-(2-methylazetidin-1-yl)-6,7-dihydro-5H-cyclopenta[d]pyrimidin-4-yl)benzo[d]isothiazol-3(2H)-one 1,1-dioxide], the IC50 at human KHK-A stood at 117 nM; against human KHK-C it was 70.6 nM.

In the case of `C[C@H]1CCN1c1nc2c(c(-c3ccc4nc(C(F)(F)F)[nH]c4c3)n1)CCC2` [Example 241, 6-[2-[(2S)-2-methylazetidin-1-yl]-6,7-dihydro-5H-cyclopenta[d]pyrimidin-4-yl]-2-(trifluoromethyl)-1H-benzimidazole], the IC50 at human KHK-A was determined as 803 nM; on human KHK-C, 1070 nM.

Turning to `C[C@H]1CCN1c1nc2c(c(-c3ccc(CS(N)(=O)=O)cc3)n1)CCC2` [Example 242, [4-[2-[(2S)-2-methylazetidin-1-yl]-6,7-dihydro-5H-cyclopenta[d]pyrimidin-4-yl]phenyl]methanesulfonamide], the figures for the IC50 at human KHK-A and against human KHK-C were 98.6 nM and 135 nM, respectively.

Turning to `C[C@H]1CCN1c1nc2c(c(-c3ccc4[nH]nc(C(F)(F)F)c4c3)n1)CCC2` [Example 243, 5-[2-[(2S)-2-methylazetidin-1-yl]-6,7-dihydro-5H-cyclopenta[d]pyrimidin-4-yl]-3-(trifluoromethyl)-1H-indazole], the IC50 against human KHK-A and against human KHK-C was more than 5000 nM throughout.

As to `C[C@H]1CCN1c1nc2c(c(-c3cnn(C(F)F)c3)n1)CCC2` [Example 259, 4-[1-(difluoromethyl)pyrazol-4-yl]-2-[(2S)-2-methylazetidin-1-yl]-6,7-dihydro-5H-cyclopenta[d]pyrimidine], the values for the IC50 at human KHK-A and on human KHK-C were 380 nM and 312 nM, respectively.

`C[C@H]1CCN1c1nc2c(c(-c3ccccc3O)n1)CCC2` [Example 260, 2-[2-[(2S)-2-methylazetidin-1-yl]-6,7-dihydro-5H-cyclopenta[d]pyrimidin-4-yl]phenol]: the IC50 against human KHK-A turned out to be 746 nM; against human KHK-C, 633 nM.

For the compound `C[C@H]1CCN1c1nc2c(c(-c3cccc(O)c3)n1)CCC2` [Example 261, 3-[2-[(2S)-2-methylazetidin-1-yl]-6,7-dihydro-5H-cyclopenta[d]pyrimidin-4-yl]phenol], the IC50 came to 133 nM against human KHK-A and 153 nM against human KHK-C.

Take `C[C@H]1CCN1c1nc2c(c(-c3ccc(O)cc3)n1)CCC2` [Example 262, 4-[2-[(2S)-2-methylazetidin-1-yl]-6,7-dihydro-5H-cyclopenta[d]pyrimidin-4-yl]phenol]: the IC50 was 180 nM against human KHK-A and 141 nM on human KHK-C.

Turning to `C[C@H]1CCN1c1nc2c(c(-c3ccc4c(c3)NC(=O)C4(C)C)n1)CCC2` [Example 264, 3,3-dimethyl-6-[2-[(2S)-2-methylazetidin-1-yl]-6,7-dihydro-5H-cyclopenta[d]pyrimidin-4-yl]indolin-2-one], the IC50 on human KHK-A was found to be 758 nM; against human KHK-C it was 646 nM.

For the compound `C[C@H]1CCN1c1nc(-c2ccns2)c2c(n1)C1CC1C2` (stereo partly drawn) [Example 273, 5-(2-((S)-2-methylazetidin-1-yl)-5,5a,6,6a-tetrahydrocyclopropa[4,5]cyclopenta[1,241]pyrimidin-4-yl)isothiazole], the IC50 amounted to 433 nM at human KHK-A and 532 nM at human KHK-C.

For the compound `C[C@H]1CCN1c1nc2c(c(-c3cccc(-c4ccn[nH]4)c3)n1)CCC2` [Example 279, (S)-4-(3-(1H-pyrazol-5-yl)phenyl)-2-(2-methylazetidin-1-yl)-6,7-dihydro-5H-cyclopenta[d]pyrimidine], the results for the IC50 against human KHK-A and on human KHK-C were 159 nM and 201 nM, respectively.

Consider `CNC(=O)c1ccc(-c2nc(N3CC[C@@H]3C)nc3c2CCC3)cn1` [Example 280, (S)—N-methyl-5-(2-(2-methylazetidin-1-yl)-6,7-dihydro-5H-cyclopenta[d]pyrimidin-4-yl)picolinamide], for which the half-inhibitory concentration (IC50) at human KHK-A was 122 nM; against human KHK-C, 188 nM.

As to `C[C@H]1CCN1c1nc2c(c(-c3ccnc(NCCO)c3)n1)CCC2` [Example 282], the results for the half-maximal inhibitory concentration (IC50) against human KHK-A and at human KHK-C were 42.6 nM and 48.2 nM, respectively.

As for `C[C@H]1[C@H](O)CN1c1nc2c(c(-c3cccc(S(N)(=O)=O)c3)n1)CCOC2` [Example 286], the IC50 at human KHK-A stood at 718 nM; against human KHK-C, 753 nM.

Consider `C[C@H]1CCN1c1nc2c(c(-c3ccc(N4CCOCC4)nc3)n1)CCC2` [Example 291, (S)-4-(5-(2-(2-methylazetidin-1-yl)-6,7-dihydro-5H-cyclopenta[d]pyrimidin-4-yl)pyridin-2-yl)morpholine], for which the IC50 on human KHK-A turned out to be 141 nM; at human KHK-C, 98 nM.

With `CNC(=O)c1ccc(-c2nc(N3CC[C@@H]3C)nc3c2CCC3)cc1` [Example 292, (S)—N-methyl-4-(2-(2-methylazetidin-1-yl)-6,7-dihydro-5H-cyclopenta[d]pyrimidin-4-yl)benzamide], the IC50 was 65.7 nM at human KHK-A and 89.1 nM on human KHK-C.

As to `C[C@H]1CCN1c1nc2c(c(-c3ccc(C(=O)N(C)C)cc3)n1)CCC2` [Example 293, (S)—N,N-dimethyl-4-(2-(2-methylazetidin-1-yl)-6,7-dihydro-5H-cyclopenta[d]pyrimidin-4-yl)benzamide], the results for the IC50 against human KHK-A and on human KHK-C were 153 nM and 200 nM, respectively.

Regarding `C[C@H]1CCN1c1nc2c(c(-c3ccc(C4(NC(=O)OC(C)(C)C)CC4)cc3)n1)CCC2` [Example 294, (S)-tert-butyl (1-(4-(2-(2-methylazetidin-1-yl)-6,7-dihydro-5H-cyclopenta[d]pyrimidin-4-yl)phenyl)cyclopropyl)carbamate], the IC50 against human KHK-A amounted to 3890 nM; against human KHK-C it was 3400 nM.

Turning to `C[C@H]1CCN1c1nc2c(c(-c3ccc(C(=O)Nc4ccccc4)cc3)n1)CCC2` [Example 296, (S)-4-(2-(2-methylazetidin-1-yl)-6,7-dihydro-5H-cyclopenta[d]pyrimidin-4-yl)-N-phenylbenzamide], the IC50 on human KHK-A was 2090 nM; at human KHK-C, 3000 nM.

Turning to `C[C@H]1CCN1c1nc2c(c(-c3cccc(C(=O)Nc4ccccc4)c3)n1)CCC2` [Example 297, (S)-3-(2-(2-methylazetidin-1-yl)-6,7-dihydro-5H-cyclopenta[d]pyrimidin-4-yl)-N-phenylbenzamide], the IC50 was found to be 847 nM against human KHK-A and 2840 nM against human KHK-C.

On to `C[C@H]1CCN1c1nc2c(c(-c3cc(C(N)=O)cc([N+](=O)[O-])c3)n1)CCC2` [Example 298, (S)-3-(2-(2-methylazetidin-1-yl)-6,7-dihydro-5H-cyclopenta[d]pyrimidin-4-yl)-5-nitrobenzamide], for which the IC50 against human KHK-A is 374 nM; against human KHK-C it was 247 nM.

On to `C[C@H]1CCN1c1nc2c(c(-c3cc(N)cc(C(N)=O)c3)n1)CCC2` [Example 299, (S)-3-amino-5-(2-(2-methylazetidin-1-yl)-6,7-dihydro-5H-cyclopenta[d]pyrimidin-4-yl)benzamide], for which the IC50 at human KHK-A is 47.3 nM; against human KHK-C, 45.6 nM.

Turning to `C[C@H]1CCN1c1nc2c(c(-c3cc(NS(C)(=O)=O)cc(C(N)=O)c3)n1)CCC2` [Example 300, (S)-3-(2-(2-methylazetidin-1-yl)-6,7-dihydro-5H-cyclopenta[d]pyrimidin-4-yl)-5-(methylsulfonamido)benzamide], the values for the IC50 against human KHK-A and against human KHK-C were 42.8 nM and 33.6 nM, respectively.

The term IC50 denotes the concentration needed to halve the response being measured.
